Reference: patent US10087192B2, “2-(het)aryl-substituted fused bicyclic heterocycle derivatives as pesticides” (BAYER CROPSCIENCE AKTIENGESELLSCHSAFT, priority 2015, dated 2018)
Read-outs that look alike come from different tables or passages of the source.

Assays:
[1] = log P by HPLC on reversed-phase column (EEC Directive 79/831 Annex V.A8); assay type: physicochemical; settings: pH 7.8, 0.001 molar aqueous ammonium hydrogencarbonate/acetonitrile, 55° C., read-out: log P (neutral)
From the text: Called log P (neutral) in the table.

[2] = system: Lucilia cuprina; assay: Lucilia cuprina test; assay type: in vivo; settings: 100 ppm, after 2 days, L1 larvae
Description: (§1) Solvent: dimethyl sulphoxide
(§2) To produce a suitable preparation of active compound, 10 mg of active compound are mixed with 0.5 ml of dimethyl sulphoxide, and the concentrate is diluted with water to the desired concentration.
About 20 L1 larvae of the Australian sheep blowfly (Lucilia cuprina) are transferred into a test vessel containing minced horsemeat and the active compound preparation of the desired concentration.
After 2 days, the kill in % is determined. 100% means that all the larvae have been killed; 0% means that no larvae have been killed.

[3] = system: Myzus persicae; assay: Myzus persicae spray test (bell pepper plants); assay type: in vivo; settings: 100 ppm, after 6 days
Description: Myzus persicae Spray Test Solvent: 7 parts by weight of dimethylformamide Emulsifier: alkylaryl polyglycol ether […] To produce further test concentrations, the preparation is diluted with emulsifier-containing water. If the addition of ammonium salts or/and penetrants is required, these are each added in a concentration of 1000 ppm to the formulation solution. Bell pepper plants (Capsicum annuum) severely infested with the green peach aphid (Myzus persicae) are treated by spraying with the active compound preparation in the desired concentration.

[4] = system: Ctenocephalides felis; assay: Ctenocephalides felis oral test; assay type: in vivo; settings: 100 ppm in citrated cattle blood, after 2 days
From the text: Ctenocephalides felis—Oral Test Solvent: dimethyl sulphoxide […] Dilution with citrated cattle blood gives the desired concentration. About 20 unfed adult cat fleas (Ctenocephalides felis) are placed into a chamber which is closed at the top and bottom with gauze. A metal cylinder whose bottom end is closed with parafilm is placed onto the chamber. The cylinder contains the blood/active compound preparation, which can be imbibed by the fleas through the parafilm membrane.

[5] = system: Boophilus microplus; assay: Boophilus microplus injection test; assay type: in vivo; settings: 20 μg/animal, assessed after 7 days
Description: Boophilus microplus—Injection Test
as §1
To produce a suitable preparation of active compound, 10 mg of active compound are mixed with 0.5 ml of solvent and the concentrate is diluted with solvent to the desired concentration.
1 μl of the active compound solution is injected into the abdomen of 5 engorged adult female cattle ticks (Boophilus microplus). The animals are transferred into dishes and kept in a climate-controlled room.
Efficacy is assessed after 7 days by laying of fertile eggs. Eggs which are not visibly fertile are stored in a climate-controlled cabinet until the larvae hatch after about 42 days. An efficacy of 100% means that none of the ticks has laid any fertile eggs; 0% means that all the eggs are fertile.

[6] = system: Phaedon cochleariae; assay: Phaedon cochleariae spray test; assay type: in vivo; settings: 500 g/ha, after 7 days, larvae on Chinese cabbage leaf discs
Description: Phaedon cochleariae—Spray Test
(§3) Solvent: 78.0 parts by weight of acetone • • 1.5 parts by weight of dimethylformamide
(§4) Emulsifier: alkylaryl polyglycol ether
(§5) To produce a suitable preparation of active compound, 1 part by weight of active compound is dissolved using the stated parts by weight of solvent and made up with water containing an emulsifier concentration of 1000 ppm until the desired concentration is attained. To produce further test concentrations, the preparation is diluted with emulsifier-containing water.
After 7 days, the efficacy in % is determined. 100% means that all the beetle larvae have been killed; 0% means that no beetle larvae have been killed.

[7] = system: Tetranychus urticae; assay: Tetranychus urticae spray test, OP-resistant; assay type: in vivo; settings: after 6 days, bean leaf discs
Description: Tetranychus urticae—Spray Test, OP-Resistant
as §3, §4, §5
Discs of bean leaves (Phaseolus vulgaris) infested with all stages of the greenhouse red spider mite (Tetranychus urticae) are sprayed with an active compound preparation of the desired concentration.
After 6 days, the efficacy in % is determined. 100% means that all the spider mites have been killed; 0% means that no spider mites have been killed.

[8] = system: Myzus persicae; assay: Myzus persicae spray test (Chinese cabbage leaf discs); assay type: in vivo; settings: 500 g/ha, after 6 days
Description: Myzus persicae—Spray Test Solvent: 78 parts by weight of acetone • • 1.5 parts by weight of dimethylformamide Emulsifier: alkylaryl polyglycol ether […] To produce further test concentrations, the preparation is diluted with emulsifier-containing water. Discs of Chinese cabbage leaves (Brassica pekinensis) infested by all stages of the green peach aphid (Myzus persicae) are sprayed with an active compound preparation of the desired concentration.

[9] = system: Ctenocephalides felis; assay: Ctenocephalides felis in vitro contact test with adult cat fleas; assay type: in vivo; settings: 5 μg/cm^2 (500 g/ha), after 48 h
Description: Ctenocephalides felis—In Vitro Contact Tests with Adult Cat Fleas
For the coating of the test tubes, 9 mg of active compound are first dissolved in 1 ml of acetone p.a. and then diluted to the desired concentration with acetone p.a. 250 μl of the solution are distributed homogeneously on the inner walls and the base of a 25 ml test tube by turning and rocking on an orbital shaker (rocking rotation at 30 rpm for 2 h). With 900 ppm active compound solution and internal surface 44.7 cm^2, given homogeneous distribution, an area-based dose of 5 μg/cm^2 is achieved.
After the solvent has evaporated off, the tubes are populated with 5-10 adult cat fleas (Ctenocephalides felis), sealed with a perforated plastic lid and incubated in a horizontal position at room temperature and ambient humidity. After 48 h, efficacy is determined. To this end, the test tubes are stood upright and the fleas are knocked to the base of the tube. Fleas which remain motionless at the base or move in an uncoordinated manner are considered to be dead or moribund.
100% efficacy means that all the fleas were dead or moribund. 0% efficacy means that no fleas were harmed.

[10] = system: Spodoptera frugiperda; assay: Spodoptera frugiperda spray test (maize leaf discs); assay type: in vivo; settings: 500 g/ha, after 7 days, caterpillars on maize leaf discs
Description: Spodoptera frugiperda—Spray Test Solvent: 78.0 parts by weight of acetone • • 1.5 parts by weight of dimethylformamide Emulsifier: alkylaryl polyglycol ether […] To produce further test concentrations, the preparation is diluted with emulsifier-containing water. Leaf discs of maize (Zea mays) are sprayed with an active compound preparation of the desired concentration and, after drying, populated with caterpillars of the armyworm (Spodoptera frugiperda).

[11] = system: Musca domestica; assay: Musca domestica test; assay type: in vivo; settings: after 2 days, adult houseflies
Description: as §1, §2
Vessels containing a sponge treated with sugar solution and the active compound preparation of the desired concentration are populated with 10 adult houseflies (Musca domestica).
After 2 days, the kill in % is determined. 100% means that all of the flies have been killed; 0% means that none of the flies have been killed.

[12] = system: Meloidogyne incognita; assay: Meloidogyne incognita test; assay type: in vivo; settings: 20 ppm, after 14 days, lettuce
Description: Meloidogyne incognita Test
Solvent: 125.0 parts by weight of acetone
To produce a suitable preparation of active compound, 1 part by weight of active compound is mixed with the stated amount of solvent and the concentrate is diluted with water to the desired concentration.
Vessels are filled with sand, active compound solution, an egg/larvae suspension of the southern root-knot nematode (Meloidogyne incognita) and lettuce seeds. The lettuce seeds germinate and the plants develop. The galls develop on the roots.
After 14 days, the nematicidal efficacy in % is determined by the formation of galls. 100% means that no galls were found; 0% means that the number of galls on the treated plants corresponds to the untreated control.

[13] = reversed-phase HPLC column (C18)

SMILES | efficacy (kill) [2] [%] | efficacy (kill) [4] [%] | efficacy (laying of fertile eggs) [5] [%] | efficacy [6] [%] | efficacy [8] [%] | efficacy [10] [%] | other results
Cn1c(-c2nc(Cl)ccc2Cl)nc2cc(C(F)(F)F)ncc21 [2-(3,6-Dichloro-2-pyridyl)-3-methyl-6-(trifluoromethyl)imidazo[4,5-c]pyridine] |  |  |  |  |  |  | chromatographic logP [1]: 2.81
CCSc1ccc(Cl)nc1-c1nc2cc(C(F)(F)F)ncc2n1C [2-(6-Chloro-3-ethylsulphanyl-2-pyridyl)-3-methyl-6-(trifluoromethyl)imidazo[4,5-c]pyridine] |  |  |  |  |  |  | chromatographic logP [1, 13]: 3.06
CCS(=O)(=O)c1ccc(Cl)nc1-c1nc2cc(C(F)(F)F)ncc2n1C [2-(6-Chloro-3-ethylsulphonyl-2-pyridyl)-3-methyl-6-(trifluoromethyl)imidazo[4,5-c]pyridine] |  |  |  |  |  |  | chromatographic logP [1, 13]: 2.54
CCS(=O)(=O)c1ccc(N2CCOCC2)nc1-c1nc2cc(C(F)(F)F)ncc2n1C [Example 1] | 90 | 98 |  |  |  |  | efficacy (kill) [3]: 95%
CCS(=O)(=O)c1ccc(-n2cnc(S(C)(=O)=O)n2)nc1-c1nc2cc(C(F)(F)F)ncc2n1C [Example 5] |  |  | 90 | 100 | 90 |  | efficacy ([7]; 500 g/ha): 90%
CCS(=O)(=O)c1ccc(-n2ccc(C(F)F)n2)nc1-c1nc2cc(C(F)(F)F)ncc2n1C [Example 8] | 100 | 95 | 95 | 100 | 100 | 100 | efficacy [9]: 100%; efficacy (kill) ([11]; 100 ppm): 100%
CCS(=O)(=O)c1ccc(-n2cnc(NC(C)=O)n2)nc1-c1nc2cc(C(F)(F)F)ncc2n1C [Example 11] | 100 | 100 |  | 100 |  |  | efficacy [9]: 100%; efficacy (kill) [3]: 100%
CCS(=O)(=O)c1ccc(-n2cnc(Cl)n2)nc1-c1nc2cc(C(F)(F)F)ncc2n1C [Example 18] | 100 | 100 |  | 100 | 100 |  | efficacy [9]: 100%; efficacy (kill) ([11]; 20 ppm): 100%
CCS(=O)(=O)c1ccc(-c2ccsc2)nc1-c1nc2cc(C(F)(F)F)ncc2n1C [Example 20, 2-[3-Ethylsulphonyl-6-(3-thienyl)-2-pyridyl]-3-methyl-6-(trifluoromethyl)imidazo[4,5-c]pyridine] | 100 |  |  |  |  |  | chromatographic logP [1, 13]: 3.13
CCS(=O)(=O)c1ccc(-n2ccc(C#N)n2)nc1-c1nc2cc(C(F)(F)F)ncc2n1C [Example 22] | 100 | 100 | 80 | 100 |  | 100 | efficacy (kill) ([11]; 100 ppm): 80%
CCS(=O)(=O)c1ccc(-n2cc(C(F)(F)F)nn2)nc1-c1nc2cc(C(F)(F)F)ncc2n1C [Example 24] | 100 |  | 80 |  |  | 100 | efficacy (kill) ([11]; 100 ppm): 80%
CCS(=O)(=O)c1ccc(-n2cc(C(F)(F)F)cn2)nc1-c1nc2cc(C(F)(F)F)ncc2n1C [Example 26, 2-[3-Ethylsulphonyl-6-[4-(trifluoromethyl)pyrazol-1-yl]-2-pyridyl]-3-methyl-6-(trifluoromethyl)-imidazo[4,5-c]pyridine] | 100 |  |  | 100 |  | 100 | efficacy (kill) ([11]; 100 ppm): 90%; chromatographic logP [1, 13]: 3.34
CCS(=O)(=O)c1ccc(-n2ccnc2)nc1-c1nc2cc(C(F)(F)F)ncc2n1C [Example 33] |  | 100 | 80 | 100 | 90 |  | efficacy [9]: 100%; efficacy ([7]; 500 g/ha): 90%
CCS(=O)(=O)c1ccc(-n2cc(Cl)cn2)nc1-c1nc2cc(C(F)(F)F)ncc2n1C [Example 36] | 100 | 100 | 90 | 100 |  | 100 | efficacy (kill) ([11]; 100 ppm): 85%
CCS(=O)(=O)c1ccc(-n2ccc(CS(C)(=O)=O)n2)nc1-c1nc2cc(C(F)(F)F)ncc2n1C [Example 40] |  |  |  | 100 | 90 |  | efficacy ([7]; 500 g/ha): 90%
CCS(=O)(=O)c1ccc(-n2ccc(C[S+](C)[O-])n2)nc1-c1nc2cc(C(F)(F)F)ncc2n1C (stereo not shown) [Example 49] |  |  |  | 100 | 90 |  | efficacy ([7]; 500 g/ha): 90%
CCS(=O)(=O)c1ccc(-n2cc(F)cn2)nc1-c1nc2cc(C(F)(F)C(F)(F)F)ncc2n1C [Example 59] | 100 | 100 | 90 | 100 |  | 100 | efficacy (kill) ([11]; 100 ppm): 95%
CCS(=O)(=O)c1ccc(-c2ccncc2)nc1-c1nc2cc(C(F)(F)F)ncc2n1C [Example 78] |  |  |  | 100 |  |  | efficacy ([7]; 100 g/ha): 90%
CCS(=O)(=O)c1ccc(-c2cccs2)nc1-c1nc2cc(C(F)(F)F)ncc2n1C [Example 79] |  |  |  |  |  |  | efficacy ([7]; 100 g/ha): 90%
CCS(=O)(=O)c1ccc(-c2ccco2)nc1-c1nc2cc(C(F)(F)F)ncc2n1C [Example 80] |  |  |  |  |  |  | efficacy ([7]; 500 g/ha): 90%
CCS(=O)(=O)c1ccc(-c2cnc(Cl)n2C)nc1-c1nc2cc(C(F)(F)F)ncc2n1C [Example 81] |  |  |  | 100 | 90 | 83 | nematicidal efficacy (formation of galls) [12]: 100%
CNc1cnc(C(F)(F)C(F)(F)F)cc1N [II-1, N3-Methyl-6-(1,1,2,2,2-pentafluoroethyl)pyridine-3,4-diamine] |  |  |  |  |  |  | chromatographic logP [1, 13]: 1.68
